Data as given in US12570988B2, “Aptamers that bind thiamine analogs and derivatives” (MeiraGTx Gene Regulation Limited, priority 2020, dated 2026).

Experiments:
riboswitch 15D10 [1] = assay: Luciferase reporter with 15D10 riboswitch (Luci-15D10) in AML12 cells; assay type: cell-based, mouse; conditions: 50 μM, AML12 cells; for fold induction at 50 µM: Mus musculus, AML12, 24 h, read-out: Fold increase in riboswitch 15D10-regulated luciferase expression, AML
riboswitch 15D10 [2] = assay: Luciferase reporter with 15D10 riboswitch (Luci-15D10) in HEK 293 cells; assay type: cell-based, human; conditions: HEK 293 cells; for fold induction at 50 µM: Homo sapiens, HEK293, 24 h, read-out: Fold increase in riboswitch 15D10-regulated luciferase expression, HEK; for effect on luciferase expression from Luci-15D10: FIG. 9A, 9C
Procedure: Transfection: 3.5×10^4 human embryonic kidney (HEK) 293 cells were plated in a 96-well flat bottom plate the day before transfection. Plasmid DNA (500 ng) was added to a tube or a 96-well U-bottom plate. […] Then, 50 μL of this diluted transfection reagent was added to the DNA, mixed, and incubated at RT for 20 min. Finally, 7 μL of this solution was added to a well of cells in the 96-well plate. Four hours after transfection, medium containing transfection solution was replaced by medium containing either TPP, fursultiamine, prosultiamine, bisbentiamine, beclotiamine hydrochloride, or sulbutiamine as aptamer inducers.
Firefly luciferase assay of cultured cells: Twenty-four hours after media change, plates were removed from the incubator, and equilibrated to RT for several minutes on a lab bench, then aspirated. Glo-lysis buffer (Promega, 100 μL, RT) was added, and the plates allowed to remain at RT for at least 5 minutes. Then, the well contents were mixed by 50 μL trituration, and 20 μL of each sample was mixed with 20 μL of bright-glo reagent (Promega) that had been diluted to 10% in glo-lysis buffer. 96 wells were spaced on an opaque white 384-well plate. Following a 5 min incubation at RT, luminescence was measured using a Tecan machine with 500 ms read time. The luciferase activity was expressed as mean arbitrary light units (ALU)±S.D., and fold induction was calculated as the quotient of the luciferase activity obtained from cells with TPP or analog treatment divided by the luciferase activity obtained from cells without TPP or analog treatment.

SMILES	fold induction at 50 µM (riboswitch 15D10 [1]; Table 2)	fold induction at 50 µM (riboswitch 15D10 [2]; 50 μM, Table 2)	effect on luciferase expression from Luci-15D10 (riboswitch 15D10 [2])	further results
C/C(=C(\CCO)SC(=O)c1ccc(Oc2ccccc2)cc1Cl)N(C=O)Cc1cnc(C)nc1N [Compound M149, (Z)—S-(2-(N-((4-amino-2-methylpyrimidin-5-yl)methyl)formamido)-5-hydroxypent-2-en-3-yl) 2-chloro-4-phenoxybenzothioate]	–	–	–	fold induction at 50 µM (riboswitch 15D10 [1]; Table 3): 383; fold induction at 50 µM (riboswitch 15D10 [2]; 50 μM, Table 3): 176
C/C(=C(\CCO)SC(=O)C1(c2cccc(Br)c2)CC1)N(C=O)Cc1cnc(C)nc1N [Compound M65, (Z)—S-(2-(N-((4-amino-2-methylpyrimidin-5-yl)methyl)formamido)-5-hydroxypent-2-en-3-yl) 1-(3-bromophenyl)cyclopropane-1-carbothioate]	67.1	3.2	–	–
C/C(=C(\CCO)SC(=O)c1ccc(C)c2ccccc12)N(C=O)Cc1cnc(C)nc1N [Compound M37, (Z)—S-(2-(N-((4-amino-2-methylpyrimidin-5-yl)methyl)formamido)-5-hydroxypent-2-en-3-yl) 4-methylnaphthalene-1-carbothioate]	134	76.2	–	–
C/C(=C(\CCO)SCOC(=O)C(c1ccccc1)(c1ccccc1)c1ccccc1)N(C=O)Cc1cnc(C)nc1N [Compound M105, (Z)-((2-(N-((4-amino-2-methylpyrimidin-5-yl)methyl)formamido)-5-hydroxypent-2-en-3-yl)thio)methyl 2,2,2-triphenylacetate]	0.2	0.2	–	–
CCOc1ccc(C(=O)S/C(CCO)=C(/C)N(C=O)Cc2cnc(C)nc2N)c(Oc2cccc(F)c2)c1 [Compound M143, (Z)—S-(2-(N-((4-amino-2-methylpyrimidin-5-yl)methyl)formamido)-5-hydroxypent-2-en-3-yl) 4-ethoxy-2-(3-fluorophenoxy)benzothioate]	–	–	–	fold induction at 50 µM (riboswitch 15D10 [1]; Table 3): 300; fold induction at 50 µM (riboswitch 15D10 [2]; 50 μM, Table 3): 138
C/C(=C(\CCO)SC(=O)c1cc2ccccc2c2ccccc12)N(C=O)Cc1cnc(C)nc1N [Compound M43, (Z)—S-(2-(N-((4-amino-2-methylpyrimidin-5-yl)methyl)formamido)-5-hydroxypent-2-en-3-yl) phenanthrene-9-carbothioate]	–	–	–	Fold increase in riboswitch 15D10-regulated luciferase expression, AML (riboswitch 15D10 [1]; Table 2): 95.3 fold; Fold increase in riboswitch 15D10-regulated luciferase expression, HEK (riboswitch 15D10 [2]; 50 μM, Table 2): 10.2 fold
C/C(=C(\CCO)SC(=O)c1c(F)cccc1Oc1cccc(Cl)c1)N(C=O)Cc1cnc(C)nc1N [Compound M130, (Z)—S-(2-(N-((4-amino-2-methylpyrimidin-5-yl)methyl)formamido)-5-hydroxypent-2-en-3-yl) 2-(3-chlorophenoxy)-6-fluorobenzothioate]	–	–	–	fold induction at 50 µM (riboswitch 15D10 [1]; Table 3): 329; fold induction at 50 µM (riboswitch 15D10 [2]; 50 μM, Table 3): 110
C/C(=C(\CCO)SC(=O)c1ccccc1Oc1cccc2ccccc12)N(C=O)Cc1cnc(C)nc1N [Compound M157, (Z)—S-(2-(N-((4-amino-2-methylpyrimidin-5-yl)methyl)formamido)-5-hydroxypent-2-en-3-yl) 2-(naphthalen-1-yloxy)benzothioate]	–	–	–	fold induction at 50 µM (riboswitch 15D10 [1]; Table 3): 316; fold induction at 50 µM (riboswitch 15D10 [2]; 50 μM, Table 3): 118
C/C(=C(\CCO)SC(=O)C(c1ccccc1)c1ccccc1)N(C=O)Cc1cnc(C)nc1N [Compound M64, (Z)—S-(2-(N-((4-amino-2-methylpyrimidin-5-yl)methyl)formamido)-5-hydroxypent-2-en-3-yl) 2,2-diphenylethanethioate]	3.9	2	–	–
COc1ccc(C(=O)S/C(CCO)=C(/C)N(C=O)Cc2cnc(C)nc2N)cc1 [Compound M29, (Z)—S-(2-(N-((4-Amino-2-methylpyrimidin-5-yl)methyl)formamido)-5-hydroxypent-2-en-3-yl) 4-methoxybenzothioate]	–	–	increased luciferase expression	–
COc1ccc2cc(C(=O)S/C(CCO)=C(/C)N(C=O)Cc3cnc(C)nc3N)ccc2c1 [Compound M52, (Z)—S-(2-(N-((4-amino-2-methylpyrimidin-5-yl)methyl)formamido)-5-hydroxypent-2-en-3-yl) 6-methoxynaphthalene-2-carbothioate]	195	364	–	–
C/C(=C(\CCO)SC(=O)c1ccc2ccccc2c1)N(C=O)Cc1cnc(C)nc1N [Compound M49, (Z)—S-(2-(N-((4-amino-2-methylpyrimidin-5-yl)methyl)formamido)-5-hydroxypent-2-en-3-yl) naphthalene-2-carbothioate]	202	414	–	–
C/C(=C(\CCO)SC(=O)/C=C/c1ccc2ccccc2c1)N(C=O)Cc1cnc(C)nc1N [Compound M88, S—((Z)-2-(N-((4-amino-2-methylpyrimidin-5-yl)methyl)formamido)-5-hydroxypent-2-en-3-yl) (E)-3-(naphthalen-2-yl)prop-2-enethioate]	355	216	–	–
C/C(=C(\CCO)SC(=O)C(C)C)N(C=O)Cc1cnc(C)nc1N [Compound M27, (Z)—S-(2-(N-((4-Amino-2-methylpyrimidin-5-yl)methyl)formamido)-5-hydroxypent-2-en-3-yl) 2-methylpropanethioate]	–	–	increased luciferase expression	–
C/C(=C(\CCOP(=O)(O)O)SC(=O)C(C)(C)C)N(C=O)Cc1cnc(C)nc1N [Compound M31, (Z)—S-(2-(N-((4-Amino-2-methylpyrimidin-5-yl)methyl)formamido)-5-(phosphonooxy)pent-2-en-3-yl) 2,2-dimethylpropanethioate]	–	–	no effect on luciferase expression	–
C/C(=C(\CCO)SC(=O)C(C)(C)C)N(C=O)Cc1cnc(C)nc1N [Compound M28, (Z)—S-(2-(N-((4-Amino-2-methylpyrimidin-5-yl)methyl)formamido)-5-hydroxypent-2-en-3-yl) 2,2-dimethylpropanethioate]	–	–	increased luciferase expression	–
C/C(=C(\CCOP(=O)(O)O)SC(=O)c1c(Cl)cccc1Cl)N(C=O)Cc1cnc(C)nc1N [Compound M33, (Z)—S-(2-(N-((4-Amino-2-methylpyrimidin-5-yl)methyl)formamido)-5-(phosphonooxy)pent-2-en-3-yl) 2,6-dichlorobenzothioate]	–	–	no effect on luciferase expression	–
C/C(=C(\CCO)SC(=O)c1c(Cl)cccc1Cl)N(C=O)Cc1cnc(C)nc1N [Compound M30, (Z)—S-(2-(N-((4-Amino-2-methylpyrimidin-5-yl)methyl)formamido)-5-hydroxypent-2-en-3-yl) 2,6-dichlorobenzothioate]	–	–	no effect on luciferase expression	–
C/C(=C(\CCO)SC(=O)c1ccccc1)N(C=O)Cc1cnc(C)nc1N [Compound M26, (Z)—S-(2-(N-((4-Amino-2-methylpyrimidin-5-yl)methyl)formamido)-5-hydroxypent-2-en-3-yl) benzothioate]	–	–	increased luciferase expression	–
C/C(=C(\CCO)SC(C)OC(=O)C(C)(C)C)N(C=O)Cc1cnc(C)nc1N (centres unmarked) [Compound M18, (Z)-1-((2-(N-((4-Amino-2-methylpyrimidin-5-yl)methyl)formamido)-5-hydroxypent-2-en-3-yl)thio)ethyl pivalate]	–	–	increased	–
